PMC10447463, “Data-mining unveils structure–property–activity correlation of viral infectivity enhancing self-assembling peptides” (Nature Communications, 2023)
Where two headings read alike, the source gives them in different places.

How the values were obtained:
[1] = Turbidity, derived count rate of scattered light; type: physicochemical; details: for Log Count Rate: log of derived count rate; for Count Rate: turbidity
Method in brief: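 Samples: 1 mg/mL in PBS pH 7.4 (from DMSO), 1 d at RT, then diluted in 1 mM KCl immediately before measurement. Triplicates, two independent runs averaged.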

[2] = ref sieste 2021 or Schilling2019, cited from earlier work
Source text: Supplement 41467_2023_40663_MOESM7_ESM.zip/FigS17.csv, table | column: Conversion Rate / % ( from sieste 2021 or Schilling2019)

[3] = Zeta-potential measurement; type: physicochemical; details: for Zeta-pot. / mV: zeta potential of peptide, Fig S15 source data
Method in brief: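 In this measurement, peptides aggregated for a day at RT in phosphate-buffered saline (pH 7.4, 1 mg/mL) are diluted into 1 mM potassium chloride, and the electrophoretic mobility is translated into zeta potential by Smoluchowski's relation.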

[4] = category 1 or 0 from count rate, key not given
[5] = derived count rate of scattered light, mean, std deviation in next column
[6] = derived count rate of scattered light, mean, std deviation in separate column
[7] = Fig S8 panels A, C, asymmetric log errors
[8] = Fig S8 panels B, D, derived count rate of scattered light
[9] = derived count rate from zeta measurement, mean
[10] = derived count rate of scattered light
[11] = previously reported peptides only

Substance | Zeta Count Rate Category ([1]; category 1/0, no key printed) | Zeta Count Rate Category [1, 4] | Zeta Count Rate / kcps [1, 5] [kcps] | Zeta Count Rate / kcps [1, 6] [kcps] | Conversion Rate / % ( from sieste 2021 or Schilling2019) [2] [%] | Zeta category ( +1 = if > 4 mV;-1 = if < -4 mV; 0 = -4mV to 4 mV) [3] | Zeta category ( +1 = if > 4 mV;-1 = if < -4 mV; 0 = -4mV to 4 mV) ([3]; category from zeta potential) | Zeta Pot. / mV ([3]; mean, Std Zeta in next column) [mV] | Zeta Pot. / mV ([3]; mean, Std in separate column) [mV] | Zeta-pot. / mV [3] [mV] | Log Count Rate [1, 7] | Log Count Rate ([1]; Fig S8 panels B, D) | Count Rate [1, 8] | Zeta Count Rate Category ([1]; category 1 / 0, no key given) | Zeta Count Rate / kcps [1, 9] [kcps] | Zeta Count Rate / kcps [1, 10] [kcps] | Zeta Count Rate Category ([1]; key not given) | Conversion Rate / % ( from sieste 2021 or Schilling2019) [2, 11] [%] | Zeta Pot. / mV [3] [mV] | Zeta category ( +1 = if > 4 mV;-1 = if < -4 mV; 0 = -4mV to 4 mV) ([3]; FigS26)
CKAKAQA [TM155] | 1 | 1 | 362.7 | 362.7 | 44 | -1 (-1 = if < -4 mV) | -1 (-1 = if < -4 mV) | -8.01 | -8.01 | -8.01 | – | – | – | – | – | – | – | – | – | –
CKAKAQANM [BL9] | 1 | 1 | 207.3 | 207.3 | 38 | -1 (-1 = if < -4 mV) | -1 (-1 = if < -4 mV) | -7.773 | -7.773 | -7.773 | – | – | – | – | – | – | – | – | – | –
CKAKAQANMWQ [BL8] | 0 | 0 | 8.967 | 8.967 | 92 | 0 (0 = -4mV to 4 mV) | 0 (0 = -4mV to 4 mV) | 0.7373 | 0.7373 | 0.7373 | 0.9528 | 0.9528 | 8.97 | – | – | – | – | – | – | –
CKFKFQFNM [BL3] | 1 | 1 | 2224 | 2224 | 88 | 1 (+1 = if > 4 mV) | 1 (+1 = if > 4 mV) | 15.13 | 15.13 | 15.13 | 3.347 | 3.347 | 2223.63 | – | – | – | – | – | – | –
CKIKIQINM [MG2] | 1 | 1 | 4228 | 4228 | 72 | 1 (+1 = if > 4 mV) | 1 (+1 = if > 4 mV) | 16.83 | 16.83 | 16.83 | – | – | – | – | – | – | – | – | – | –
CKIKIQINMWQ [MG1] | 1 | 1 | 1881 | 1881 | 87 | 1 (+1 = if > 4 mV) | 1 (+1 = if > 4 mV) | 13.87 | 13.87 | 13.87 | – | – | – | – | – | – | – | – | – | –
CKIKQII [MG4a] | – | 0 | 74.6 | 74.6 | – | 0 (0 = -4mV to 4 mV) | 0 (0 = -4mV to 4 mV) | -3.83 | -3.83 | -3.83 | 1.873 | 1.873 | 74.6 | 0 | 74.6 | 74.6 | 0 | 55 | -3.83 | –
CSISIQINM [TM145] | 1 | – | 3291 | – | 86 | -1 (-1 = if < -4 mV) | – | -19.4 | – | -19.4 | – | – | – | – | – | – | – | – | – | –
KFKFKFQF [TG18] | – | 1 | 1036 | – | – | 1 (+1 = if > 4 mV) | 1 (+1 = if > 4 mV) | 15.2 | – | 15.2 | – | – | – | 1 | – | 1036 | – | 94 | 15.2 | –
KFKFQFNM [BL6a] | 1 | 1 | 131.8 | 131.8 | 91 | 1 (+1 = if > 4 mV) | 1 (+1 = if > 4 mV) | 13.9 | 13.9 | 13.9 | – | – | – | – | – | – | – | – | – | –
KIKIKIQI [TG13] | – | 1 | 999.1 | – | – | 1 (+1 = if > 4 mV) | 1 (+1 = if > 4 mV) | 6.97 | – | 6.97 | – | – | – | 1 | – | 999.1 | – | 80 | 6.97 | –
KIKIQI [JJA4] | 1 | 1 | 108.3 | 108.3 | 5 | -1 (-1 = if < -4 mV) | -1 (-1 = if < -4 mV) | -5.63 | -5.63 | -5.63 | – | – | – | – | – | – | – | – | – | –
KIKIQINMWQ [JG1] | 1 | 1 | 2196 | 2196 | 93 | 1 (+1 = if > 4 mV) | 1 (+1 = if > 4 mV) | 14.87 | 14.87 | 14.87 | – | – | – | – | – | – | – | – | – | 1 (+1 = if > 4 mV)
KIKQII [msis21] | – | 1 | 122 | – | – | -1 (-1 = if < -4 mV) | -1 (-1 = if < -4 mV) | -12.67 | -12.67 | -12.67 | – | – | – | 1 | 122 | 122 | 1 | 6 | -12.67 | –
